Assays:
CML CD34+ cells [1] = test: LC-MS steady state metabolite analysis of primary CML CD34+ cells; assay type: cell-based, human
Description: (§1) Cells were counted using a CASY counter with the following parameters: E-cur 7.5-22.5, N-cur 5.25-20.5. Cell number was multiplied by peak volume (size) and this number was used to calculate volume of solvent to extract in. Cells were pelleted by centrifugation (400 RCF, 10 minutes, room temperature) at which medium was removed for YSI analysis. Cells were then washed twice with ice cold PBS (Calcium and Magnesium free: Thermo Fisher Scientific) with pulse centrifugation (12,000RCF, 15 seconds, 4° C.) used between and after washes. Cells were then extracted in LC-grade ACN:MeOH:H2O solvent (−20° C., 5:3:2) by disrupting the pellet by pipetting followed by a 5 second vortex. Finally, debris was pelleted by centrifugation (16,000RCF, 10 minutes, 4° C.), supernatant transferred to LC-MS glass vials that were stored at −80° C. until analysis.
The LC system composed of a ZIC-pHILIC column (SeQuant, 150×2.1 mm, 5 μm, Merck KGaA) with a ZIC-pHILIC guard column (SeQuant, 20×2.1 mm) with an UltiMate 3000 HPLC system (Thermo Fisher Scientific). The aqueous mobile-phase solvent was 20 mM ammonium carbonate-0.1% ammonium hydroxide solution and with acetonitrile being used for organic mobile phase. A linear biphasic LC gradient was conducted from 80% organic to 80% aqueous for 15 min for a total run time of 22 min. The column temperature was maintained at 45° C. flow rate set to 200 μL/min.
The MS used in this study was a qExactive Plus Orbitrap Mass Spectrometer (Thermo Fisher Scientific) operating in polarity switching mode. The MS set up was calibrated using a custom CALMIX in both ionization modes before analysis and a tune file targeted towards the lower m/z range was used. Full scan (MS1) data was acquired in both ionization modes in profile mode at 70,000 resolution (at m/z range 75-1000), an automatic gain control (AGC) target of 1×10^6 (max fill time of 250 ms), with spray voltages +4.5 kV (capillary +50V, tube: […], skimmer: +20V) and −3.5 kV (capillary −50V, tube: […], skimmer: −20V) and s-lens RF level of 50 for the front optics. The capillary temperature 375° C., probe temperature 50′C, sheath gas flow rate 25, auxiliary gas flow rate 15a.u. 15 and sweep gas flow rate of 1a.u.
(§2) The peak areas of different metabolites were determined using Tracefinder 4.1 software (Thermo Fisher Scientific). Metabolites were identified by accurate mass of the singly charged ion and by known retention times on the pHILIC column. A commercially available standard compound mix (Merck: MSMLS-1EA) had been analysed previously on our LC-MS system to determine accurate ion masses and retention times. The 13C labelling was determined by quantifying peak areas for the accurate mass of all isotopologues of each metabolite.
Two independent experiments were performed, data normalised to first sample in each experiment, processed through Autoplotter (56), samples as experiments, and normalised data as replicates. […] For MSDC-0160 treated samples a batch correction (to non-drug control) was used prior to analysis using Metabonalyst. Volcano plots were generated, and an FDR adjusted t-test threshold 0.1 was utilised. Note both fold changes and p-values are log transformed. Top-25 scoring metabolites are included in heatmap.

CML CD34+ cells [2] = test: 13C stable isotope tracing (glucose, glutamine, palmitate) in primary CML CD34+ cells; assay type: cell-based, human
Description: (§3) For conjugation of palmitate, a 20 mM stock was made in 100% EtOH. This was incubated on a shaking heater, 60° C. until the solution clarified. The palmitate was then added to 10% BSA (ultra-fatty acid free in EBSS, Roche, 03117057001) to give a palmitate:BSA ratio of 1:3 BSA. This solution was left for 15 min in water bath (37° C.), and then added to final concentration in complete medium. For cell line experiments, the medium was RPMI with 10% dialysed FBS and 1% penicillin/streptomycin. For tracing experiments 11 mM ^13C6 glucose was added to glucose-free RPMI.
as §1, §2
Biological and technical replicates were processed through Autoplotter (56) and natural abundance was corrected for. Fraction of enrichment was calculated as m+2 and above. For CML samples treated with or without imatinib, multiple paired T-tests were conducted on Log 10 transformed values in Graphpad Prism. The correction for multiple comparisons was the two-stage step-up method of Benjamini, Krieger and Yekutieli with an FDR (Q) value of 10%. For volcano plots Log 10 FC vs Log 10 (q value) are plotted with q values>5% in red and >10% in blue. For normal vs CML comparisons, the process was the same with the exception that unpaired t-tests were used. For PC activity in normal vs CML, this is denoted by fraction m+3. For imatinib vs untreated we look at relative activity to PDH. IE., the m+3/m+2 ratio and conducted multiple t-tests with correction for multiple comparisons being the two-stage step-up method of Benjamini, Krieger and Yekutieli with an FDR (Q) value of 10%.

K562 CML cell line = test: 13C6 glucose tracing in K562 CML cell line; assay type: cell-based, human; settings: K562, several concentrations
Description: as §3
Biological and technical replicates were processed through Autoplotter (56) and natural abundance was corrected for. Fraction of enrichment was calculated as m+2 and above. For CML samples treated with or without imatinib, multiple paired T-tests were conducted on Log 10 transformed values in Graphpad Prism. The correction for multiple comparisons was the two-stage step-up method of Benjamini, Krieger and Yekutieli with an FDR (Q) value of 10%. For volcano plots Log 10 FC vs Log 10 (q value) are plotted with q values>5% in red and >10% in blue. For normal vs CML comparisons, the process was the same with the exception that unpaired t-tests were used. For PC activity in normal vs CML, this is denoted by fraction m+3. For imatinib vs untreated we look at relative activity to PDH. IE., the m+3/m+2 ratio and conducted multiple t-tests with correction for multiple comparisons being the two-stage step-up method of Benjamini, Krieger and Yekutieli with an FDR (Q) value of 10%. To examine contribution to carbon pool we corrected contribution of each isotopologue by the number of carbons it contributes to a given metabolite, i.e., for glutamine contribution from m+5 is greater than m+3. Note that for cell line experiments standard deviation is shown.

CML CD34+ cells [3] = test: Colony forming cell (CFC) assay of CML CD34+ cells; assay type: cell-based, human; settings: 72 hours, n=6 CML patients
normal CD34+ cells = test: Colony forming cell (CFC) assay of normal CD34+ cells; assay type: cell-based, human; settings: 72 hours, n=3 healthy donors
FBS (Bos taurus) = test system: T1, FBS (Bos taurus); settings: as previously reported (ref 44); cited from earlier work
T1 construct: host or cells: FBS in culture medium

[4] = imatinib 2 μM, 48 hours, CML CD34+ cells

T1 sequence (P02769 25-607): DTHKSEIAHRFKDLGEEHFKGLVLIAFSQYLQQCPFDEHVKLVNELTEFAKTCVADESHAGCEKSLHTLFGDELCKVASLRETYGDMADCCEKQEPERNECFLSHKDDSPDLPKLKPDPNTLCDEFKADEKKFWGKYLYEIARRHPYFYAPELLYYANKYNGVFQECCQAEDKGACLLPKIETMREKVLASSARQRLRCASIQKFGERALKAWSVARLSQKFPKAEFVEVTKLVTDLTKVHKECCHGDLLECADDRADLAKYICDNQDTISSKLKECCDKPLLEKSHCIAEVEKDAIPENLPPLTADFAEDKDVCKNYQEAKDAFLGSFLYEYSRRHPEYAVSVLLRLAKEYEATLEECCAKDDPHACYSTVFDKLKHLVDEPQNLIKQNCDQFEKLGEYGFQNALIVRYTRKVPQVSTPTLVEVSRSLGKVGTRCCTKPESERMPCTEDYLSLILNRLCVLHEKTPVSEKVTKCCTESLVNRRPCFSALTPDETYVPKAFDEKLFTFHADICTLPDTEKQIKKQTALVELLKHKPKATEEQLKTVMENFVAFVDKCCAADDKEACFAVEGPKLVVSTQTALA

Structure (SMILES): CCc1ccc(C(=O)COc2ccc(CC3SC(=O)NC3=O)cc2)nc1 (stereo not drawn) [MSDC-0160]
- dose at which steady state analysis showed significant metabolic changes (CML CD34+ cells [1]; primary CML CD34+ samples, 24 hours, highest dose): 100 µM
- m+2 and m+3 fractions of TCA cycle metabolites (CML CD34+ cells [2]; 20 or 100 μM MSDC-0160, primary CML CD34+ samples): significant decreases to both m+2 and m+3 fractions
- inhibition of glucose oxidation in primitive CD34+CD38- population (CML CD34+ cells [2]; compared with CD34+CD38+ progenitor population, data not shown): to a similar extent as in the CD34^+CD38^+ progenitor population
- inhibition of labelling in stromal co-culture (CML CD34+ cells [2]; presence of stromal cells, 24-hour culture, 50 uM): also achieved in the presence of stromal cells
- total glucose contribution and m+3 contribution to TCA cycle metabolites (CML CD34+ cells [2]; primary CML CD34+ samples, 24 hours): reduced both total glucose contribution and m+3 contribution to TCA cycle metabolites in a dose-dependent manner
- dose required to fully inhibit labelling (CML CD34+ cells [2]; primary CML CD34+ samples, medium with Albumax II): 100 µM
- labelled fractions in alpha-ketoglutarate (AKG) and AKG-derived glutamate (K562 CML cell line): reducing levels of all labelled fractions in these metabolites in a concentration-dependent manner
- glucose contribution to fraction of labelling (K562 CML cell line; data not shown): concentration-dependent reduction
- number of colonies, MSDC-0160 added to imatinib (CML CD34+ cells [3]; 20 or 50 μM MSDC-0160 plus 2 μM imatinib): further concentration-dependent reduction
- CFC potential of normal CD34+ cells, single agent (normal CD34+ cells): no significant effect
- CFC potential of normal CD34+ cells, combination treatment (normal CD34+ cells; MSDC-0160 plus 2 μM imatinib): no significant effect
- binding to FBS (FBS (Bos taurus)): high FBS binding

Structure (SMILES): Cc1ccc(NC(=O)c2ccc(CN3CCN(C)CC3)cc2)cc1Nc1nccc(-c2cccnc2)n1 [imatinib]
- ATP levels (CML CD34+ cells [1]; imatinib 2 μM, 48 hours): trend towards reduced ATP levels
- oxidative stress, cellular redox and TCA cycle metabolites, steady state (CML CD34+ cells [1]; imatinib 2 μM, 48 hours): decreases
- AMP/ATP ratio (CML CD34+ cells [1]; imatinib 2 μM, 48 hours, n=4 patient samples): significant increase in AMP/ATP ratio
- glucose incorporation (13C-glucose labelling) in sorted CML CD34+CD38- cells (CML CD34+ cells [2]; imatinib 2 μM, 24 hours, n=3): statistically significant reduction
- relative PC/PDH activity in CML CD34+CD38- cells (CML CD34+ cells [2]; imatinib 2 μM, 24 hours, n=3, p-value=0.0870): increased in all three patient samples
- PC relative to PDH contribution of glucose (m+3/m+2 ratio in malate, citrate, aspartate) (CML CD34+ cells [2]; [4]): increased
- glucose contribution to metabolite fraction labelling (13C6 glucose) (CML CD34+ cells [2]; [4]): reduced
- glutamine contribution to metabolite fraction labelling (13C5 glutamine) (CML CD34+ cells [2]; [4]): reduced
- palmitate contribution to metabolite fraction labelling (13C16 palmitate) (CML CD34+ cells [2]; [4]): not significantly different
- labelled fractions of TCA cycle metabolites affected (CML CD34+ cells [2]; imatinib, primary CML CD34+ samples, not shown): only affected m+2 fractions
- number of colonies (CML CD34+ cells [3]; 2 μM imatinib alone): reduced the number of colonies
- CFC potential of normal CD34+ cells, single agent (normal CD34+ cells): no significant effect
